Measurements reported in ChEMBL document CHEMBL1201862, “PubChem BioAssay data set” (2004).
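Dose response: 5 concentrations. Exposure: 48 h. Format: 96-well plates. Endpoint: linear interpolation; highest concentration if not reached. GI50 marks 50% less growth.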 Activity calls are given as the source filed them. No stated cut-off is given here; in the data, active = GI50 up to about 1.1 µM and inactive = higher.

Tests used:
Assay in all cases: NCI tumour cell line growth inhibition, 48 h
786-0 = system: 786-0
EKVX = system: EKVX
HCT-15 = system: HCT-15
HOP-92 = system: HOP-92
K562 = system: K562
M14 = system: M14
Malme-3M = system: Malme-3M
NCI-H23 = system: NCI-H23
SF-268 = system: SF-268
SK-MEL-2 = system: SK-MEL-2
SN12C = system: SN12C
SR = system: SR
SW-620 = system: SW-620
HCT-116 = system: HCT-116
MCF7 = system: MCF7
MDA-MB-435 = system: MDA-MB-435
A498 = system: A498
MDA-MB-231 = system: MDA-MB-231
BT-549 = system: BT-549

Compound | GI50 (786-0) | GI50 (EKVX) | GI50 (HCT-15) | GI50 (HOP-92) | GI50 (K562) | GI50 (M14) | GI50 (Malme-3M) | GI50 (NCI-H23) | GI50 (SF-268) | GI50 (SK-MEL-2) | GI50 (SN12C) | GI50 (SR) | GI50 (SW-620) | GI50 (HCT-116) | GI50 (MCF7) | GI50 (MDA-MB-435) | GI50 (A498) | GI50 (MDA-MB-231) | GI50 (BT-549)
O=C(O)Cc1cc(=O)[nH]c2c1/C(=N/O)CCC2 | > 100 µM (inactive) | > 100 µM (inactive) | > 100 µM | > 100 µM (inactive) | > 100 µM (inactive) | > 100 µM (inactive) | > 100 µM (inactive) | > 100 µM (inactive) | > 100 µM (inactive) | > 100 µM (inactive) | > 100 µM (inactive) | > 100 µM (inactive) | > 100 µM (inactive) |  |  |  |  |  | 
O=c1ccn(Cc2ccccc2CCl)c(=O)[nH]1 | 20.7 µM (inactive) | 25.4 µM (inactive) | 18.4 µM | 57.9 µM (inactive) | 34.8 µM (inactive) | 26.2 µM (inactive) | 20.2 µM (inactive) | 20.4 µM (inactive) | 25.7 µM (inactive) | 32.7 µM (inactive) | 27.6 µM (inactive) | 27.7 µM (inactive) | 35.5 µM (inactive) | 21.7 µM (inactive) | 23.6 µM (inactive) | 28.9 µM (inactive) |  |  | 
COc1cc(OC)c(NC2=NCCO2)cc1Cl | 30.1 µM (inactive) | 61.9 µM (inactive) | 33.9 µM |  | 83.9 µM (inactive) | 31.3 µM (inactive) | 68.7 µM (inactive) | 22.2 µM (inactive) | 39.7 µM (inactive) | 17.3 µM (inactive) | 44.4 µM (inactive) | 27.4 µM (inactive) | > 100 µM (inactive) | 34.4 µM (inactive) | 49.1 µM (inactive) | 20.1 µM (inactive) | 32.7 µM (inactive) | 26.1 µM (inactive) | 
CC(C)=NN/C=N\C(C#N)=C(/N)C#N | > 100 µM (inactive) | > 100 µM (inactive) | > 100 µM |  | > 100 µM (inactive) | > 100 µM (inactive) | 69.2 µM (inactive) | > 100 µM (inactive) | > 100 µM (inactive) | > 100 µM (inactive) |  | > 100 µM (inactive) | > 100 µM (inactive) | 78.9 µM (inactive) | > 100 µM (inactive) |  |  |  | > 100 µM (inactive)
CCOC(=O)C1CSCCSC1 |  |  | > 100 µM | > 100 µM (inactive) | > 100 µM (inactive) |  |  | > 100 µM (inactive) | > 100 µM (inactive) |  | > 100 µM (inactive) | > 100 µM (inactive) | > 100 µM (inactive) | > 100 µM (inactive) | > 100 µM (inactive) | > 100 µM (inactive) | 44.3 µM (inactive) | > 100 µM (inactive) | 
O=C1C(=O)C(CCCO)(CCCO)CCCCCCCCC1(CCCO)CCCO | > 100 µM (inactive) | > 100 µM (inactive) | > 100 µM | 39.7 µM (inactive) | 23.7 µM (inactive) | 37.4 µM (inactive) | > 100 µM (inactive) | > 100 µM (inactive) | 38.1 µM (inactive) | 46.8 µM (inactive) | > 100 µM (inactive) | 18.6 µM (inactive) | > 100 µM (inactive) | 32 µM (inactive) | 55.1 µM (inactive) | 61.2 µM (inactive) | > 100 µM (inactive) |  | 
Nc1ccccc1C#CC(=O)c1cccc(C(F)(F)F)c1 | 2.1 µM (inactive) | 16.3 µM (inactive) |  | 1.99 µM (inactive) | 3.01 µM (inactive) | 2.22 µM (inactive) | 6.1 µM (inactive) | 1.97 µM (inactive) | 2.2 µM (inactive) | 1.18 µM (inactive) | 2.06 µM (inactive) | 2.27 µM (inactive) | 2.21 µM (inactive) | 2.66 µM (inactive) | 2.89 µM (inactive) | 2.52 µM (inactive) | 18.5 µM (inactive) | 1.95 µM (inactive) | 
CC(Oc1ccc(OCC2CCCCC2)cc1)C(=O)N(CCO)CCO (stereo not drawn) | > 100 µM (inactive) |  | > 100 µM |  | > 100 µM (inactive) | > 100 µM (inactive) | > 100 µM (inactive) | > 100 µM (inactive) | > 100 µM (inactive) | > 100 µM (inactive) | > 100 µM (inactive) |  |  | > 100 µM (inactive) |  |  | > 100 µM (inactive) |  | 
